The subject of data set [1] is full length SMN2 minigene mRNA containing SMN2 exon 7 (SMN2-A minigene). Nature of the data set: SMN2 minigene mRNA splicing RT-qPCR assay in cultured cells. Type of data set: cell-based, human. The conditions noted are these: Homo sapiens, HEK293-H; HEK293H cells stably transfected with SMN2-A minigene, 24 hours, 7-point concentration curve; concentration giving 1.5-fold SMN2 full length mRNA vs vehicle; read-out: EC1.5x for production of full length SMN2 mRNA. Summed up: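 HEK293H cells stably carrying the SMN2-A minigene were treated 24 h at 37 °C with a 7-point, 3.16-fold test compound series, in duplicate. Multiplex RT-qPCR measured exon 7-containing minigene FL mRNA, normalized to GAPDH and expressed relative to vehicle; EC1.5x is the concentration giving 1.5-fold FL mRNA.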

In data set [2] the test system is Smn protein. Nature of the data set: Smn protein assay (Smn HTRF) in cultured cells. It counts as cell-based, human. The conditions noted are these: Homo sapiens, Fibroblast, GM03813 SMA Type 1 patient fibroblasts, 48 hours, HTRF; for maximal fold induction: 7-point concentration data, relative to vehicle, read-out: maximum fold (Fold) increase of Smn protein; for EC (1.5-fold): concentration producing 1.5 times Smn protein vs DMSO vehicle, read-out: EC1.5x for Smn protein expression. An outline of the steps:
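SMA patient fibroblasts (5,000/well) were exposed to a 7-point, 3.16-fold compound dilution series for 48 hours at 37° C, in triplicate. Lysates were read by HTRF with anti-SMN d2/kryptate at 665/620 nm. Blank-corrected signal was expressed as fold over DMSO vehicle, giving the EC1.5x and the maximum fold increase.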
(In general: TR-FRET usually uses a lanthanide donor and a delayed reading to cut background.)

SMILES strings stand for the structures.

As usually defined, the melting point is the temperature, or range, at which the solid turns liquid. Molecule `O=c1cc(-c2cccnc2)oc2ccc(N3CCNCC3)cc12` [Cpd 1, 6-(piperazin-1-yl)-2-(pyridin-3-yl)-4H-chromen-4-one] showed a melting point of 177 to 180 °C. Besides, the EC (1.5-fold) in data set [1] is 0.3 to 1 µM. Also, the maximal fold induction in data set [2] lay within 1.35 to 1.5.

As for `O=c1cc(-c2ccccn2)oc2ccc(N3CCNCC3)cc12` [Cpd 7, 6-(piperazin-1-yl)-2-(pyridin-2-yl)-4H-chromen-4-one], the melting point lay within 170 to 172 °C. In addition, the EC (1.5-fold) in data set [1] fell in the range of 0.3 to 1 µM. For the same molecule, in data set [2], the maximal fold induction was 1.5 to 1.65 and the EC (1.5-fold) fell in the range of 3 to 10 µM.

With `O=c1cc(-c2nc3ccccc3s2)oc2ccc(N3CCNCC3)cc12` [Cpd 32, 2-(1,3-benzothiazol-2-yl)-6-(piperazin-1-yl)-4H-chromen-4-one], the melting point was in the range of 250 to 254 °C. Also, the EC (1.5-fold) in data set [1] is 1 to 3 µM. Moreover, the maximal fold induction in data set [2] lay in the range of 1.2 to 1.35.

`CCN1CCN(c2ccc3oc(-c4cccnc4)cc(=O)c3c2)CC1` [Cpd 3, 6-(4-ethylpiperazin-1-yl)-2-(pyridin-3-yl)-4H-chromen-4-one] returned a melting point of 140 to 142 °C. In addition, in data set [1], the EC (1.5-fold) lay in the range of 3 to 30 µM. Further, in data set [2], the maximal fold induction is no more than 1.2.

For `C[C@H]1CN(c2ccc3oc(-c4nc5ccccc5s4)cc(=O)c3c2)CCN1` [Cpd 36, 2-(1,3-benzothiazol-2-yl)-6-[(3S)-3-methylpiperazin-1-yl]-4H-chromen-4-one], the melting point was in the range of 140 to 142 °C. Besides, in data set [1], the EC (1.5-fold) fell in the range of 0.3 to 1 µM. In data set [2], the maximal fold induction was 1.5 to 1.65 and the EC (1.5-fold) was 1 to 3 µM.

In turn, `COc1ccc(-c2cc(=O)c3cc(N4CCN[C@@H](C)C4)ccc3o2)cc1C(F)(F)F` [Cpd 71, 2-[4-methoxy-3-(trifluoromethyl)phenyl]-6-[(3S)-3-methylpiperazin-1-yl]-4H-chromen-4-one] showed a melting point of 182 to 184 °C. Also, the EC (1.5-fold) in data set [1] lay within 0.1 to 0.3 µM. Further, in data set [2], the maximal fold induction was 1.35 to 1.5 and the EC (1.5-fold) fell in the range of 3 to 10 µM.

Turning to `COc1ccc(-c2cc(=O)c3cc(N4CCN[C@@H](C)C4)ccc3o2)cn1` [Cpd 56, 2-(6-methoxypyridin-3-yl)-6-[(3S)-3-methylpiperazin-1-yl]-4H-chromen-4-one], the melting point was in the range of 196 to 200 °C. In addition, the EC (1.5-fold) in data set [1] lay within 0.3 to 1 µM. In addition, the maximal fold induction in data set [2] lay in the range of 1.35 to 1.5.

`O=c1cc(-c2cccc(F)c2)oc2ccc(N3CCNCC3)cc12` [Cpd 66, 2-(3-fluorophenyl)-6-(piperazin-1-yl)-4H-chromen-4-one] showed a melting point of 150 to 152 °C. The EC (1.5-fold) in data set [1] lay in the range of 0.1 to 0.3 µM. Moreover, the maximal fold induction in data set [2] was in the range of 1.35 to 1.5.

The molecule `COc1ccc(-c2cc(=O)c3cc(N4C[C@@H](C)N[C@@H](C)C4)ccc3o2)cc1F` [Cpd 39, 6-[(3R,5S)-3,5-dimethylpiperazin-1-yl]-2-(3-fluoro-4-methoxyphenyl)-4H-chromen-4-one] gave a melting point of 180 to 182 °C. The EC (1.5-fold) in data set [1] lay within 0.1 to 0.3 µM. Moreover, in data set [2], the maximal fold induction was in the range of 1.5 to 1.65 and the EC (1.5-fold) was 3 to 10 µM.
